Reference: patent US8580752B2, “Aromatic amides as potentiators of bioefficacy of anti-infective drugs” (priority 2005, dated 2013)
Like-named read-outs stand apart in the source and are kept apart here.

Columns and labels:
MRSA 450 = assay: MIC by checkerboard method; type: cell-based; details: Staphylococcus aureus; Mupirocin alone; S aureus MRSA 450; read-out: MIC of Mupirocin
MRSA [1] = assay: MIC by checkerboard method, comparison with piperine; type: cell-based, Staphylococcus aureus; details: Staphylococcus aureus, Tables 5A/5B, Mupirocin alone, read-out: MIC Mupirocin
MRSA [2] = assay: Wound infection treatment in mice; type: in vivo; details: for Growth / Mean CFU: MRSA wound infection in mice
Description: The study was conducted to see the in vivo response of Mupirocin in combination with the above-mentioned potentiator. Wound area of 1.5 cm×1.5 cm was created on the skin of mice by abrasion with sand paper. An inoculum of 10^8 CFU/ml of MRSA was applied on to this wound area. The wound was treated for five days (two applications a day) with mupirocin cream and the other group with a formulation of mupirocin at ¼^th concentration and compound of formula 1a. […] (Table-6).

MRSA 33 = assay: MIC by checkerboard method; type: cell-based; details: Staphylococcus aureus; Mupirocin alone; S aureus MRSA 33; read-out: MIC of Mupirocin
S aureus ATCC 29213 = assay: MIC by checkerboard method; type: cell-based, Staphylococcus aureus; details: Staphylococcus aureus
MRSA 15187 = assay: MIC by checkerboard method; type: cell-based; details: Staphylococcus aureus; Mupirocin alone; S aureus MRSA 15187
[3] = test system: S. aureus ATCC 29213 (wild strain); assay: Ethidium bromide accumulation and efflux; details: compound 25 μg/ml, ethidium bromide 2 μg/ml
Description: Briefly, for measurement of the level of accumulation, both the bacterial strains were grown overnight on Trypticase Soya Agar. Bacterial suspensions were prepared at an optical density at 550 nm of 0.2 in uptake buffer (NaCl, 110 mM; KCl, 7 mM; NH4Cl, 50 mM; Na2HPO4, 0.4 mM; Tris base, 52 mM; glucose, 0.2% adjusted to pH 7.5 with HCl) and were then exposed to ethidium bromide at a concentration of 2 μg/ml. The increase in fluorescence as ethidium bromide entered the cells was recorded fluorometrically with a Perkin-Elmer model LS50 spectrofluorimeter (excitation λ, 530 nm; emission λ, 600 nm) at 30° C.
For determining ethidium bromide loss, bacterial suspensions were prepared as described above and were exposed to ethidium bromide (2 μg/ml) in the presence of compound of formula 1a (25 μg/ml) for 30 min at 37° C. The cells were then pelleted by centrifugation and were resuspended in fresh uptake buffer. The loss of ethidium bromide from the cells was measured as a decrease in fluorescence (FIG. IB)

[4] = test system: Staphylococcus aureus, MRSA and Staphylococcus hemolyticus; assay: Decrease in MIC of ciprofloxacin in combination; type: cell-based; details: bacterial species (Table-2)
[5] = test system: S. aureus 29213, MRSA and M. tuberculosis H37Rv; assay: Comparison of potentiating activity with piperine; type: cell-based; details: Ciprofloxacin, Amikacin, Rifampicin and Mupirocin (Table-5 A & B)
Description: Minimum Inhibitory Concentration (MIC) of antibacterial agents (Ciprofloxacin, Amikacin, Rifampicin and Mupirocin) was determined alone and in combination with compound of formula (1a). MIC of the abovementioned antibacterial agents was also determined in combination with piperine.

[6] = test system: mice and guinea pig models infected with microorganisms; assay: In vivo infection models, combinations with anti-infective agents
From the text: These combinations were also efficacious when tested in in vivo using mice and guinea pig models infected with microorganisms (table-7).

Acute toxicity study = type: in vivo; details: mice
From the text: Parameters monitored were: Food/water consumption, body weight, organ weight, haematological and clinical chemistry profile.

[7] = 2% Mupirocin, five days, two applications a day
[8] = 0.25% Mupirocin + 0.25% compound of formula 1
[9] = 0.5% Mupirocin + 0.25% compound of formula 1

SMILES	MIC (MRSA 450)	MIC (MRSA [1])	Growth (MRSA [2]; [7])	Mean CFU (MRSA [2]; [7])	MIC (MRSA 33)	MIC (S aureus ATCC 29213; ATCC29213, Mupirocin alone, read-out: MIC of Mupirocin)	MIC (S aureus ATCC 29213; ATCC29213, Tables 5A/5B, Mupirocin alone, read-out: MIC Mupirocin)	MIC (MRSA 15187)	accumulation of ethidium bromide ([3]; S. aureus wild type (FIG. IA))	efflux of ethidium bromide ([3]; S. aureus wild type (FIG. IB))	reductions in MIC of ciprofloxacin in combination with the potentiator [4]	potency relative to piperine in reducing the MICs of the antibacterial agents [5]	Growth (MRSA [2]; [8])	Mean CFU (MRSA [2]; [8])	Growth (MRSA [2]; [9])	Mean CFU (MRSA [2]; [9])	Growth (MRSA [2]; 0.5% Mupirocin + 0.5% compound of formula 1)	wound healing (MRSA [2]; combination of mupirocin with compound of formula-1a vs mupirocin cream, MRSA-infected skin wound of mice, five days)	efficacy of combinations with anti-infective agents in vivo [6]	LD50 (oral) (Acute toxicity study)
C/C(=C\C(=O)OCCCCCCCCC(=O)O)C[C@@H]1OC[C@H](C[C@@H]2O[C@H]2[C@@H](C)[C@H](C)O)[C@@H](O)[C@H]1O [Mupirocin, reference compound]	0.25 µg/mL	0.12 µg/mL	3/5	1.08 × 10^4 CFU	0.12 µg/mL	0.12 µg/mL	0.12 µg/mL	0.25 µg/mL	–	–	–	–	–	–	–	–	–	–	–	–
CCC(/C=C/C(=O)N1CCCCC1)=C\c1ccc2c(c1)OCO2 [compound of formula 1a, 4-ethyl-5-(3,4-methylenedioxyphenyl)-2E,4E-pentadienoic acid piperidine amide]	–	–	–	–	–	–	–	–	Increased Accumulation	Decreased Efflux	Two to more than eight fold	four times more potent than piperine	4/5	2.5 × 10^4 CFU	1/5	4.0 × 10^3 CFU	0/5	better wound healing	efficacious	> 3.0 gm/kg
